Data taken from patent US9895302B2, “Finasteride polymeric nanoparticle, aqueous suspension containing the same, composition for the treatment of alopecia, process of preparation of said composition, and its use” (Biolab Sanus Farmaceutica Ltda., priority 2012, dated 2018).
Values after ≈ are worked out from the molar mass of the structure shown.

Columns and labels:
men aged 18 to 41 years = details: 1 mg daily, at the end of five years; cited from earlier work
[1] = Solubility of finasteride in Unistab S-69 (dosing by HPLC); format: physicochemical; details: Unistab S-69 (commercial mixture of farnesol and linalool), oil or lipid
Method: The second embodiment of the invention is to increase the encapsulation of finasteride by the addition of a new oil in the formulation's lipid core composition in which the solubility is greater than in caprylic and capric triglycerides. To this end, Unistab® S-69, a commercial mixture, was preferentially employed and consists of farnesol and linalool, in which the solubility of finasteride is about 90 mg/mL (dosing done by HPLC). Farnesol is a sesquiterpene alcohol and linalool is a terpenic alcohol, both found in various essential oils and insoluble in water but miscible with oils and other organic solvents such as acetone and ethanol. For being volatile, Unistab® S-69 was mixed with triglycerides in a ratio of 2.3: 1 (v/v) (Unistab® S-69: triglycerides). However, this proportion, considering the saturation of finasteride in Unistab® S-69, could be employed in the preparation of a formulation with a drug concentration of 2.0 mg/ml, due to the volatility of Unistab® S-69 and to the consequent loss of oil due to the draw caused by steam during the process of solvent evaporation under reduced pressure, a formulation was prepared with a finasteride concentration of 0.5 mg/ml, in order to ensure the nanometric features of the system. This formulation comprising a new lipid core represents the second embodiment of the invention.

solubility [1]: ~90 mg/mL (≈ 242 mM)
Compound: CC(C)(C)NC(=O)[C@H]1CC[C@H]2[C@@H]3CC[C@H]4NC(=O)C=C[C@]4(C)[C@H]3CC[C@]12C [finasteride]
Patients who developed baldness (men aged 18 to 41 years): 10%
